A word on the EC50: it is the midpoint of the concentration-response curve.

In assay [1] the test system is 5-LO. Put plainly: Lipoxygenase inhibitor screening assay, cell-free, 5-LO with linoleic acid as substrate. Format: biochemical. As for the experimental part: (§1) CLX-162C-C01 in concentrations ranging from 0.001 to 1.2 mM was added to 5-LO or 15-LO in the screening assay buffer, respectively, and the LO inhibitor screening assay was immediately started by addition of the corresponding substrates and running for 5 min. The inhibitory capacity of CLX-162C-C01 against lipoxygenases was studied in a cell-free system consisting of CLX-162C-C01 and 5-LO or 15-LO together with appropriate substrates, respectively.

Assay [2] concerns 15-LO. Kind of assay: Lipoxygenase inhibitor screening assay, cell-free, 15-LO with arachidonic acid as substrate. It counts as biochemical. As to conditions: concentrations from 0.32 to 0.93 mM. Here is the method:
as §1

Assay [3] can be described thus: Oxidative capacity of UCP (oxidation of methionine to methionine sulfoxide), cell-free. Conditions: 0.1 to 10 mM, preincubation 60 min, methionine sulfoxide formation. As for the experimental part: The influence of CLX-162C-C01 on the oxidative capacity of UCP was studied by preincubating UCP (2 mg/ml H2O) with various concentrations of CLX-162C-C01 (0.1, 1, and 10 mM) for 60 min at room temperature in parallel with the controls. To assay the oxidative capacity of UCP, aliquots of 50 microlit (100 microgm UCP) of particle suspension taken from the preincubations were suspended in 1 ml H2O and incubated in the presence of 100 microM methionine for 2 h at 25° C. Formation of methionine sulfoxide was measured fluorometrically after precolumn derivatization with o-phthaldialdehyde and HPLC. […] The oxidative potential of the particles was subsequently determined by their capacity to oxidize […] sulfoxide. […] CLX-162C-C01 antioxidative potency to prevent the oxidation of methionine by agglomerates of ultrafine carbon particles (UCPs). Particulate stimulants such as UCP and zymosan activate lipid mediator synthesis and to induce oxidative stress in macrophages.

Assay [4] addresses human 5-HT2B receptors (Homo sapiens, UniProt P41595). Put plainly: 5-HT2B agonist assay, intracellular calcium (Fluo-3, FLIPR) in HEK-293 cells. Format: cell-based. Conditions: HEK-293 cells expressing human 5-HT2B. As for the experimental part:
5-HT2B receptors stably expressing HEK-293 cells were maintained in Dulbecco's modified Eagle's medium (DMEM) supplemented with 10% fetal bovine serum and 250 microgm·mL-1 G-418. HEK-293 cells expressing human 5-HT2B receptors were seeded in […] poly-D-lysine coated plates at a density of 50,000 cells·well-1 in DMEM containing 10% (v.v-1) dialyzed fetal bovine serum and 250 microgm·mL-1 G-418. After overnight incubation, the cells were washed three times with Hank's buffered saline solution containing 2 mM CaCl2), 10 mM HEPES and 2.5 mM probenecid. The cells were incubated with 2 microM Fluo-3 AM in Hank's buffered saline solution for 60 min at 37 C. The Fluo-3 loaded cells were then washed four times with Hank's buffered saline solution. Agonist-induced changes in intracellular calcium concentrations were determined at room temperature using a Fluorometric Imaging Plate Reader.
In general terms: Calcium assays in cells follow changes in intracellular calcium, usually with a dye or a luminescent sensor.

Each structure is given as a SMILES string. Where two headings read alike, the source gives them in different places.

Chain of human 5-HT2B receptors (P41595 whole entry): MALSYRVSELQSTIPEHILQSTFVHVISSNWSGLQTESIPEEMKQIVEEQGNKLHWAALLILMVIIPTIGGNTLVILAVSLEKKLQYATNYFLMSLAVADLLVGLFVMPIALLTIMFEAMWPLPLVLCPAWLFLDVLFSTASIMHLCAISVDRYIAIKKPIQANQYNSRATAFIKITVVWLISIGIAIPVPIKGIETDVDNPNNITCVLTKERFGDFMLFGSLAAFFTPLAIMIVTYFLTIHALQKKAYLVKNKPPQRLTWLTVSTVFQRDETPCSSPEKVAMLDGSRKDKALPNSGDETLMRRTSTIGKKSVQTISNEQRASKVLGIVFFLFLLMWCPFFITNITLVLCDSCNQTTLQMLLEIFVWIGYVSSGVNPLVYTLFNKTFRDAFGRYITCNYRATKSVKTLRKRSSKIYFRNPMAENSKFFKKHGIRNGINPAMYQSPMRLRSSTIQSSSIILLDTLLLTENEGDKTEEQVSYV

Regarding `Cc1cc(C(C)(C)C)c(O)c(C)c1CC1=NCCN1` [CLX-162C-C01, 2-(4-(tert-butyl)-3-hydroxy-2,6-dimethylbenzyl)-4,5-dihydro-1Himidazol-1-ium (R)-5-(1,2-dithiolan-3-yl) pentanoate], the “inhibition of the activity of 5-LO” value in assay [1] (concentrations from 0.32 to 0.93 mM) is “strongly inhibited”. Besides, in assay [1] (linoleic acid substrate, 5 min, read-out: 50% inhibition of 5-LO), the IC50 is 320000 nM. Besides, in assay [2], the “inhibition of the activity of 15-LO” value is reported as “only marginally affected”. Besides, the “effect on oxidative capacity of UCP” value in assay [3] is “did not reduce”. Further, the EC50 in assay [4] (read-out: EC50, 5-HT2B agonist effect) was 14.2 nM; in assay [4] (read-out: pEC50 (-log EC50), 5-HT2B agonist effect (converted)), 490 nM.

For the origin of these results see US20220033360A1, “OPHTHALMIC COMPOSITIONS AND METHODS FOR THE TREATMENT OF SKIN DISEASES AND EYE DISEASES” (Cellix Bio Private Limited, priority 2018, published 2022).
